Measurements published in ChEMBL document CHEMBL1201862, “PubChem BioAssay data set” (2004).
Active and inactive are the calls of the source.

What was measured:
[1] = target: COUP transcription factor 2 (Homo sapiens, UniProt P24468); experiment: Luminescence-based cell-based high throughput dose response assay to identify inhibitors of COUP-TFII (NR2F2).; assay type: functional;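 note: HEK293 cells transiently cotransfected with COUP-TFII expression vector and reporter; luciferase reporter luminescence driven by COUP-TFII from the pX2-168 reporter plasmid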
[2] = target: T1, Disintegrin and metalloproteinase domain-containing protein 17 (Homo sapiens, UniProt P78536); experiment: ADAM17 protease inhibitors, dose response, counter-screen for ADAM10 exosite inhibitor project, biochemical, quenched FRET substrate (AID 743253)
[3] = target: T2, Heat shock factor protein 1 (Mus musculus, UniProt P38532); experiment: inhibition of MG132-induced HSE-luciferase signal, confirmation, cell-based, NIH3T3, luminescence, dose retest (AID 2382); assay type: functional;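 note: NIH3T3 fibroblasts with HSF1-driven luciferase reporter stressed by proteasome inhibitor MG132; luminescence from HSF1-driven luciferase expression after 8 hours of MG132 stress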
T2 sequence (P38532 whole entry): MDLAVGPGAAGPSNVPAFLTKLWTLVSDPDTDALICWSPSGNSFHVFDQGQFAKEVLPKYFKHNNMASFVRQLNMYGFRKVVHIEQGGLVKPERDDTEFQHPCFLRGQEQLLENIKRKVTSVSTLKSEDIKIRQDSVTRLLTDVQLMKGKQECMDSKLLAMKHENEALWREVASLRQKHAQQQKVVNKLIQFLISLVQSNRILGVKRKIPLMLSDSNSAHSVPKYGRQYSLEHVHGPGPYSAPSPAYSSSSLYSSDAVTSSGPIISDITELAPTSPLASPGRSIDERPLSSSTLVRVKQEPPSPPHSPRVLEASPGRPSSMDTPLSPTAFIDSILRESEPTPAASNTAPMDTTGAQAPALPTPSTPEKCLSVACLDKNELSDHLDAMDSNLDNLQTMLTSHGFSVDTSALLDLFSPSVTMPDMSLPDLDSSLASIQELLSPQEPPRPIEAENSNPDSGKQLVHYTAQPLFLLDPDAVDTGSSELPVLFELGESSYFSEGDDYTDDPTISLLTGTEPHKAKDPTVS

Major prion protein = Major prion protein (Homo sapiens, UniProt P04156); assay type: functional, cell-based
cells [4] = experiment: cells
[5] = target: Kappa-type opioid receptor (Homo sapiens, UniProt P41145); experiment: Late-stage fluorescence-based cell-based dose response assay for antagonists of kappa opioid receptor 1 (OPRK1).; assay type: functional
Mu-type opioid receptor = Mu-type opioid receptor (Homo sapiens, UniProt P35372); experiment: Late-stage results from the probe development effort to identify antagonists of OPRK1: luminescence-based cell-based dose response OPRM1 counterscreen, Set 2.; assay type: functional
[6] = target: Delta-type opioid receptor (Homo sapiens, UniProt P41143); experiment: Late-stage results from the probe development effort to identify antagonists of OPRK1: fluorescence-based cell-based dose response OPRD1 counterscreen, Set 2.; assay type: functional
[7] = target: Sphingosine 1-phosphate receptor 1 (Homo sapiens, UniProt P21453); experiment: Late-stage counterscreen for antagonists of kappa opioid receptor 1 (OPRK1): fluorescence-based cell-based dose response assay to identify antagonists of Sphingosine 1-Phosphate Receptor 1 (S1P1).; assay type: functional
[8] = inhibitors of firefly luciferase expression or activity, dose response, H4 neuroglioma cells, luminescence (AID 1990); assay type: functional, cell-based
[9] = Luminescence Cell-Based Dose Response HTS to Identify Inhibitors of 5'UTR Stem-Loop Driven Prion Protein mRNA Translation in H4 Neuroglioblastoma Cells. [Related pubchem assays: 1827 (Project Summary), 1813 (Primary HTS)]; assay type: functional
[10] = inhibitors of SNCA 5'UTR-driven reporter translation, confirmation, H4 neuroglioma cells, luminescence (AID 1988); assay type: functional, cell-based
[11] = HepG2 cell cytotoxicity, dose response, cytotoxicity control, ATP luminescence, cherry-pick, set 6 (AID 1053125); assay type: functional, cell-based
[12] = cytotoxicity in HEK-293T cells, dose response, cytotoxicity control for TCR NF-kB inhibitor project, luminescence, T-cell screen hits (AID 489026); assay type: functional, cell-based;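 note: cells exposed to compound about 14 hours before the viability readout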
cells [13] = assay type: functional, cell-based
[14] = target: SWI/SNF-related matrix-associated actin-dependent regulator of chromatin subfamily A member 2 (Homo sapiens, UniProt P51531); experiment: Luminescence-based cell-based high throughput dose response assay to identify activators of the function of SWI/SNF related, matrix associated, actin dependent regulator of chromatin, subfamily a, member 2 (SMARCA2, BRM).; assay type: functional
[15] = target: T3, Long-chain-fatty-acid--AMP ligase FadD28 (Mycobacterium tuberculosis, UniProt P9WQ59); experiment: Fluorescence polarization aasay to screen for inhibitors that compete for the binding of FadD28 to a bisubstrate Measured in Biochemical System Using Plate Reader - 2147-01_Inhibitor_Dose_CherryPick_Activity.; assay type: functional, Mycobacterium tuberculosis H37Rv
T3 sequence (P9WQ59 whole entry): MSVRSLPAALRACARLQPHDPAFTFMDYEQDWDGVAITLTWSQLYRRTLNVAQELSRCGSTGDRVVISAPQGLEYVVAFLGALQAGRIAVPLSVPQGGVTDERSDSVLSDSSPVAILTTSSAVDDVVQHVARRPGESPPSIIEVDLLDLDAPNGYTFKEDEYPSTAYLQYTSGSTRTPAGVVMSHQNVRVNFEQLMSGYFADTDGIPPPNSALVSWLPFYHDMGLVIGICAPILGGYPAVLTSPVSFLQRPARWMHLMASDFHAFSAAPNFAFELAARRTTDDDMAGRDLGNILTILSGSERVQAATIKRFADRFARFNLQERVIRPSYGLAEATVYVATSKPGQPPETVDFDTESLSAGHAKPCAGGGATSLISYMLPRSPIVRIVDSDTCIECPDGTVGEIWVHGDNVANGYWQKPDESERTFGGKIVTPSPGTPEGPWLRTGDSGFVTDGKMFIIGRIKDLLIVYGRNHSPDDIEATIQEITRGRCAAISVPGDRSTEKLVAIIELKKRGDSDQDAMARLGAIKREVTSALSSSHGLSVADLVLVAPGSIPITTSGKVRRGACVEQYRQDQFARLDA

[16] = Counterscreen for activators of the function of SWI/SNF related, matrix associated, actin dependent regulator of chromatin, subfamily a, member 2 (SMARCA2, BRM): Luminescence-based cell-based high throughput dose response assay to identify non-selective compounds using the VP16 reporter assay.; assay type: functional
[17] = target: T4, Nuclear receptor subfamily 0 group B member 1 (Homo sapiens, UniProt P51843); assay type: functional, cell-based;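 note: HEK293T cells transfected with SF-1 and DAX-1 plus StAR promoter luciferase reporter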
T4 sequence (P51843 whole entry): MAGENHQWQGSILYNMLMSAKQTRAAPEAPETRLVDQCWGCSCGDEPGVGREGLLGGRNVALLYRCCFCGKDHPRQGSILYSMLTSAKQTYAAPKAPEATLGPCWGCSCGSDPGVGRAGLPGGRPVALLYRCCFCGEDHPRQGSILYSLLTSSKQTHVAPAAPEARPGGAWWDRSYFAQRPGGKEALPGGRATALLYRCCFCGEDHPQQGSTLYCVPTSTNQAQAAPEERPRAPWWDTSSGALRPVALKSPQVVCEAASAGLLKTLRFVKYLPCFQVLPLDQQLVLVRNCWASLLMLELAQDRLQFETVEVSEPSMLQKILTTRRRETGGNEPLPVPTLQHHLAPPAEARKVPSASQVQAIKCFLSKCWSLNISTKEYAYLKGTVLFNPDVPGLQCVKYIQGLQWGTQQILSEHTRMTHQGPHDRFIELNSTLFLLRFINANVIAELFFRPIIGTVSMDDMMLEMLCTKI

HeLa = experiment: HeLa cell cytotoxicity, dose response, cytotoxicity control for MITF activator project, CellTiter-Glo luminescence, cherry-pick samples (AID 540259); assay type: functional, cell-based; conditions: Homo sapiens
[18] = HEK293 cell cytotoxicity, dose response, cytotoxicity control, dry powder samples (AID 720567); assay type: functional, cell-based
[19] = ADAM10 protease inhibitors, dose response, selectivity assay for ADAM17 exosite inhibitor project, biochemical, FRET peptide substrate, recombinant human ADAM10 (AID 743259);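 note: ADAM10 enzyme cleaving a FRET peptide substrate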
[20] = target: T1, Disintegrin and metalloproteinase domain-containing protein 17; experiment: exosite inhibitors of ADAM17, dose response, biochemical (AID 743260)
[21] = LGR2 antagonists, dose response, cell-based, HEK293, CRE-luciferase reporter, cherry pick, set 2 (AID 743343); assay type: functional;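 note: transfected cells were stimulated with diluted bursicon conditioned medium after compound addition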
[22] = A549 cell cytotoxicity, dose response, cytotoxicity control, plate reader, cherry-pick, antagonist series (AID 743412); assay type: functional, cell-based
[23] = HepG2 cell cytotoxicity, dose response, cytotoxicity control, plate reader, cherry-pick, antagonist series (AID 743416); assay type: functional, cell-based
[24] = MC4R antagonists, dose response, counter-screen for LGR2 antagonist project, cell-based, plate reader, cherry pick (AID 743444); assay type: functional;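 note: transfected HEK 293 cells stimulated with alpha-MSH peptide; potency of inhibitors of the alpha-MSH evoked signal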
[25] = HEK293 cell cytotoxicity, dose response, cytotoxicity control, plate reader, cherry-picked samples (AID 743446); assay type: functional, cell-based
[26] = IOSE-T80 ovarian epithelial cell cytotoxicity, dose response, cytotoxicity control for PAX8 inhibitor project, plate reader, dry powder samples (AID 743045); assay type: functional, cell-based
Paired box protein Pax-8 = Paired box protein Pax-8 (Homo sapiens, UniProt Q06710); experiment: inhibitors of PAX8-driven TPO luciferase reporter, dose response, RMG-I cells, cherry-pick (AID 687027); assay type: functional, cell-based;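 note: luciferase reporter driven by Pax8 target thyroperoxidase promoter measured by SteadyGlo luminescence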
[27] = NIH:OVCAR-3 ovarian cancer cell cytotoxicity, dose response, PAX8 inhibitor project, plate reader, dry powder samples (AID 743044); assay type: functional, cell-based
[28] = cytotoxicity in OVCAR8 ovarian cancer cells, dose response, PAX8 project, cell-based, plate reader, dry powder samples (AID 743197); assay type: functional; conditions: OVCAR-8

Question: What does the source list for CC(C)(C)c1ccc(-c2cc(-c3ccccc3O)n[nH]2)cc1?
Answer: IC50 [1]: 47.8 µM (inactive); IC50 [2]: > 69.6 µM (inactive); EC50 [3]: 1.81 µM (active)

Question: With Cc1onc(-c2c(F)cccc2Cl)c1C(=O)Nc1nnc(C(F)(F)F)s1 as the compound, how does the IC50 (Major prion protein) read?
Answer: Its IC50 is 2.79 µM (active).

Question: And the IC50 (cells [4])?
Answer: The IC50 was > 138 µM (inactive).

Question: Which IC50 [5] does the source give for CN(C)c1cc(NC(=O)Nc2ccccc2)c2ccccc2n1 here?
Answer: Its IC50 is 32.6 µM (inactive).

Question: What about the IC50 (Mu-type opioid receptor) of the same compound?
Answer: The IC50 was > 50 µM (inactive).

Question: And the IC50 [6]?
Answer: Its IC50 is 69.5 µM (inactive).

Question: And the IC50 [7]?
Answer: The IC50 was 40 µM (inactive).

Question: For Cc1ccc(NC(=O)Nc2ccnc(-c3cccnc3)n2)cc1, which EC50 [8] is on record?
Answer: Its EC50 is 0.983 µM (active).

Question: And the EC50 [9]?
Answer: The EC50 was > 120 µM (not active).

Question: And the EC50 [10]?
Answer: The EC50 was 0.87 µM (active).

Question: And the AC50 [11]?
Answer: The AC50 was > 52 µM (inactive).

Question: And the IC50 [12]?
Answer: Its IC50 is 27.8 µM (inactive).

Question: For CCc1cccc2c(C(=O)CN3C(=O)NC4(CCCCCC4)C3=O)c[nH]c12, which IC50 (cells [13]) is on record?
Answer: The IC50 was > 67.6 µM (inactive).

Question: And the EC50 [14]?
Answer: Its EC50 is > 91.2 µM (inactive).

Question: What about the AC50 [15] of the same compound?
Answer: The AC50 was 4.33 µM (active).

Question: And the EC50 [16]?
Answer: Its EC50 is > 91.2 µM (inactive).

Question: And the IC50 [17]?
Answer: Its IC50 is > 67.6 µM (inactive).

Question: And the AC50 (HeLa)?
Answer: The AC50 was 99.7 µM (active).

Question: For Cc1cccc(C)c1OCCNC(=O)C(=O)NCc1ccco1, which AC50 [18] is on record?
Answer: Its AC50 is > 30 µM (inactive).

Question: What does the source list for C[C@H](CO)N1C[C@H](C)[C@H](CN(C)S(=O)(=O)c2cccs2)Oc2ccc(NC(=O)Nc3ccc4c(c3)OCO4)cc2CC1=O?
Answer: IC50 [19]: 13.8 µM (inactive); IC50 [20]: > 69.5 µM (inactive)

Question: With CCN1CCN(Cc2ccc(NC(=O)c3cccc(-c4ccc5nc(NC(=O)C6CC6)sc5n4)c3)cc2C(F)(F)F)CC1 as the compound, how does the AC50 [21] read?
Answer: The AC50 was 5.27 µM (active).

Question: And the AC50 [22]?
Answer: Its AC50 is 5.08 µM (active).

Question: And the AC50 [23]?
Answer: Its AC50 is 3.22 µM (active).

Question: And the AC50 [24]?
Answer: The AC50 was 2.18 µM (active).

Question: What about the AC50 [25] of the same compound?
Answer: The AC50 was 8.7 µM (active).

Question: Which AC50 [26] does the source give for CN1c2ccc(-c3ccccc3)cc2[C@H]2[C@H](CCN2C(=O)NC2CCCCC2)[C@@H]1CO here?
Answer: The AC50 was 53.9 µM (active).

Question: And the AC50 (Paired box protein Pax-8)?
Answer: The AC50 was 11.5 µM (active).

Question: What about the AC50 [27] of the same compound?
Answer: The AC50 was 23.4 µM (active).

Question: And the AC50 [28]?
Answer: Its AC50 is 25.3 µM (active).
